Assay [1] has as its target T1, ROCK2 kinase (Homo sapiens, UniProt O75116).
T1 construct: purchased Invitrogen PV3759
Briefly: In vitro evaluation of ROCK2 kinase activity (HTRF KinEASE-STK time-resolved fluorometric assay). The format is biochemical. How it is done:
ROCK2 activity screening. ROCK2 activity was detected using a 96-well (Cisbio) time-resolved fluorometric assay. The assay for ROCK2 was performed in the following assay buffer: 5 mM MgCl2 (Sigma), 1 mM DTT (Sigma) and 1× kinase buffer. The kinase buffer was used for dilution. 7.5 μL of ROCK2 kinase (Invitrogen, PV3759) was added to a 96-well microplate to reach a final concentration of 0.4 ng/μL, and then 0.25 μL of test compound (DMSO content: 1% (volume fraction)) was added. The mixture was incubated at room temperature for 0.5 h. To start the reaction, the kinase buffer was used to mix ATP (Aladdin) and the substrate STK-substrate 2-biotin. 7.5 μL of the mixed solution was added to the microplate to reach final concentrations of 6.739 μM and 1 μM. The resulting mixture was incubated for 2 h at room temperature. 5 mL of detection buffer was mixed with STK antibody-Cryptate, and then an appropriate volume of the mixture was mixed with an equal volume of streptavidin-XL665. 10 μL of the resulting mixture was added to the microplate to stop the reaction. After further incubation for about 1 h, the microplate was read on a Molecular Devices SpectraMax i3x multifunctional microplate reader. The kinase buffer, the STK-substrate 2-biotin, the detection buffer, the STK antibody-Cryptate, and the streptavidin-XL665 were all from HTRF KinEASE-STK kit (Cisbio, 1000 tests, 61[…]).

Assay [2] addresses T2, ROCK1 kinase (Homo sapiens, UniProt Q13464).
T2 construct: purchased Invitrogen
Briefly: In vitro evaluation of ROCK1 kinase selectivity (HTRF KinEASE-STK time-resolved fluorometric assay). The format is biochemical. The protocol:
ROCK1 activity was detected using a 96-well (Cisbio) time-resolved fluorometric assay. The assay for ROCK1 was performed in the following assay buffer: 5 mM MgCl2 (Sigma), 1 mM DTT (Sigma) and 1× kinase buffer. The kinase buffer was used for dilution. 7.5 μL of ROCK1 kinase (Invitrogen) was added to a 96-well microplate to reach a final concentration of 0.4 ng/μL, and then 0.25 μL of test compound (DMSO content: 1%) was added. The mixture was incubated at room temperature for 0.5 h. To start the reaction, the kinase buffer was also used to mix ATP (Aladdin) and the substrate STK-substrate 2-biotin. 7.5 μL of the mixed solution was added to the microplate to reach final concentrations of 3.53 μM and 1 μM. The resulting mixture was incubated for 2 h at room temperature. […] was mixed with STK antibody-Cryptate, and then an appropriate volume of the mixture was mixed with an equal volume of streptavidin-XL665. 10 μL of the resulting mixture was added to stop the reaction. After further incubation for about 1 h, the microplate was read on a Molecular Devices SpectraMax i3x multifunctional microplate reader. The kinase buffer, the STK-substrate 2-biotin, the detection buffer, the STK antibody-Cryptate, and the streptavidin-XL665 were all from HTRF KinEASE-STK kit (Cisbio, 1000 tests, 61[…]).

Where only a bound is given, the exact number is not on record here.

T2 sequence (Q13464 whole entry): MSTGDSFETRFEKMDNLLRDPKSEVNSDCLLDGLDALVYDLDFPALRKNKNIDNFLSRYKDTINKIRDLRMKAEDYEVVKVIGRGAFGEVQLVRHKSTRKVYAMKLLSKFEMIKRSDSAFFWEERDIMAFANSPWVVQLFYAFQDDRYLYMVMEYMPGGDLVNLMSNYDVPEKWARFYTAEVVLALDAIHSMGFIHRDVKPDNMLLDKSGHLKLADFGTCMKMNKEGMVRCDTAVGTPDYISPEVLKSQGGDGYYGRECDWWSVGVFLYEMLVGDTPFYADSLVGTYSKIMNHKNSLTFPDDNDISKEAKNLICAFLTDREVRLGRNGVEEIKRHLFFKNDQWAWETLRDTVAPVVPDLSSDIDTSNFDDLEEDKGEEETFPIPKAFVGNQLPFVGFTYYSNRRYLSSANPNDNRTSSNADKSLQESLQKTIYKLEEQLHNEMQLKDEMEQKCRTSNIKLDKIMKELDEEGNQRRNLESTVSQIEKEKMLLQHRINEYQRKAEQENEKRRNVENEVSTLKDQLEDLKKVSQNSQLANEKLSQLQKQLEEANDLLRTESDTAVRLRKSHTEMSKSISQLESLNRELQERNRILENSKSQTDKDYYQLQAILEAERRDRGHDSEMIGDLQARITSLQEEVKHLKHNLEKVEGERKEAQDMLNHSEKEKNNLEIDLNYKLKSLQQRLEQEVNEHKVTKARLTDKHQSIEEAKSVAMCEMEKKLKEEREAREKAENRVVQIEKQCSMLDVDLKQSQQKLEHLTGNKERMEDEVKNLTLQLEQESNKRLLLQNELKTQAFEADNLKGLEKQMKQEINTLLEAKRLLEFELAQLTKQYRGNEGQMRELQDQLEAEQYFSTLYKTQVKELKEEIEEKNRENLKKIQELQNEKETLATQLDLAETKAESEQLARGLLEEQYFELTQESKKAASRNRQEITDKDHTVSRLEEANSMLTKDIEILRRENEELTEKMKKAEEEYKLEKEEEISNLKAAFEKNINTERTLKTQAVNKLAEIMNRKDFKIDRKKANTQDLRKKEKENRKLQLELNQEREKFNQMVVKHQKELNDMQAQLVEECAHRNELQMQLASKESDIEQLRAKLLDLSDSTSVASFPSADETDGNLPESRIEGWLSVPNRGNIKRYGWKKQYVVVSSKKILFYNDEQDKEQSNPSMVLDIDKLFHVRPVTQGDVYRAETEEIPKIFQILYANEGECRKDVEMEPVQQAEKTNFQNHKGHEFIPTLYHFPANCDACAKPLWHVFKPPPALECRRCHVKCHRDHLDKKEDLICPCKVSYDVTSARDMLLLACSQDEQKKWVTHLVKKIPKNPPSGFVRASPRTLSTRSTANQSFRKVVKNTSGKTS
T1 sequence (O75116 whole entry): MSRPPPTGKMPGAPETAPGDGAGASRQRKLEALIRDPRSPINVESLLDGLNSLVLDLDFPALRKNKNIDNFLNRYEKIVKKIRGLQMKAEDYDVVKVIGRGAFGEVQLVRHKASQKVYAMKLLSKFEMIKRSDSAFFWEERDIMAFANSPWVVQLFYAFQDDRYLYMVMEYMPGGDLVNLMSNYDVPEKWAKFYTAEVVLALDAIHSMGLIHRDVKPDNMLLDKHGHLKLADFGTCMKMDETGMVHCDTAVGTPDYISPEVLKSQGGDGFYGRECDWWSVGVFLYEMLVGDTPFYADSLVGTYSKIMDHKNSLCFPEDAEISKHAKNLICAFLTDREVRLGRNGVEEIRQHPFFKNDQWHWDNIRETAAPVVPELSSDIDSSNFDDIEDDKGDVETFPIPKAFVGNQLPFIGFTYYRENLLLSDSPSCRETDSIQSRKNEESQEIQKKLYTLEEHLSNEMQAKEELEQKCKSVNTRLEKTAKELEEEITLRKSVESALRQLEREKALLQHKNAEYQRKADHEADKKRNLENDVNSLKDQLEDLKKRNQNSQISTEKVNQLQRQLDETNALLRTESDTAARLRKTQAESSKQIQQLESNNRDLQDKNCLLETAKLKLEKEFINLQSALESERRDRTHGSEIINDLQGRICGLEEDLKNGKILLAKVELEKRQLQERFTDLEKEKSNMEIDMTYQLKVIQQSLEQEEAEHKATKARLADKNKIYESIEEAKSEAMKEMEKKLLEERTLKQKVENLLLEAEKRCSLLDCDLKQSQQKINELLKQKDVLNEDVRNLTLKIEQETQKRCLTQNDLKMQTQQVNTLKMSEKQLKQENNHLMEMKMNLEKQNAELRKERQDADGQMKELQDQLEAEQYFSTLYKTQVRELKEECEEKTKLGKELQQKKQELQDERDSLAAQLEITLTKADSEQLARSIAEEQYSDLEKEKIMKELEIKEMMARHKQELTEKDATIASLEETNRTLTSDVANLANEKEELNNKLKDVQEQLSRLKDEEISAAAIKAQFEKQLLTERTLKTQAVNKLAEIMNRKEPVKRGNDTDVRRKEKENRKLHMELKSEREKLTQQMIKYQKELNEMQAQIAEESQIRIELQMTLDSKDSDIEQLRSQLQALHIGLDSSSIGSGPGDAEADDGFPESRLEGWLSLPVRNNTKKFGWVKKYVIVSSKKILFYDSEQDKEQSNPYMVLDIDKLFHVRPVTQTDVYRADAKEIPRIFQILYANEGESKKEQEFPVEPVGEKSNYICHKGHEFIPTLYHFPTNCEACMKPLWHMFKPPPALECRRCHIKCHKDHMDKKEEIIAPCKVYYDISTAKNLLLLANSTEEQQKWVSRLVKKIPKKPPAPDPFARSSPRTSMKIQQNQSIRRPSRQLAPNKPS

Turning to `CN(C)CCN(Cc1ccccc1)C(=O)N1CCc2cc(-c3cn[nH]c3)ccc21` [Compound T244], the IC50 in assay [1] and in assay [2] was 50 to 500 nM in each case.

In the case of `O=C(NCc1ccccc1)N1CCc2cc(-c3ccncc3)ccc21` [Compound T245], the IC50 in assay [1] and in assay [2] was 50 to 500 nM in each case.

`O=C(NCc1ccccc1)N1CCc2cc(-c3ccc4[nH]ccc4c3)ccc21` [Compound T246]: the IC50 in assay [1] and in assay [2] was 500 to 5000 nM each time.

Regarding `O=C(NCc1ccc2[nH]cnc2c1)N1CCc2cc(-c3cn[nH]c3)ccc21` [Compound T247], the IC50 in assay [1] and in assay [2] was 50 to 500 nM throughout.

On to `CN(C)CCC(NC(=O)N1CCc2cc(-c3cn[nH]c3)ccc21)c1ccccc1` (stereo not drawn) [Compound T248], for which the IC50 in assay [1] and in assay [2] was 50 to 500 nM each time.

`O=C(NC(c1ccccc1)c1ccccc1)N1CCc2cc(-c3cn[nH]c3)ccc21` [Compound T249]: the IC50 in assay [1] and in assay [2] was 500 to 5000 nM in each case.

Turning to `O=C(N[C@H](CN1CC(F)(F)C1)c1cc(F)cc(F)c1)N1CCc2cc(-c3c[nH]nc3F)c(F)cc21` [Compound T340], the IC50 is at most 50 nM in assay [1] and 50 to 500 nM in assay [2].

Regarding `COc1cc(F)cc(C(C)NC(=O)N2CCc3cc(-c4cn[nH]c4)c(F)cc32)c1` (stereo not drawn) [Compound T341, 6-fluoro-N-(1-(3-fluoro-5-methoxyphenyl)ethyl)-5-(1H-pyrazol-4-yl)indoline-1-carboxamide], the IC50 in assay [1] and in assay [2] was at most 50 nM throughout.

With `COc1cc(F)cc(CNC(=O)N2CCc3cc(-c4cn[nH]c4F)ccc32)c1` [Compound T342, 5-(5-fluoro-1H-pyrazol-4-yl)-N-(3-fluoro-5-methoxybenzyl)indoline-1-carboxamide], the IC50 in assay [1] and in assay [2] was at most 50 nM in each case.

Turning to `CN1CC(COc2cc(F)cc(C(CO)NC(=O)N3CCc4cc(-c5cn[nH]c5)c(F)cc43)c2)C1` (stereo not drawn) [Compound T343, 6-fluoro-N-(1-(3-fluoro-5-((1-methylazetidin-3-yl)methoxy)phenyl)-2-hydroxyethyl)-5-(1H-pyrazol-4-yl)indoline-1-carboxamide], the IC50 in assay [1] was in the range of 50 to 500 nM; in assay [2] it was 500 to 5000 nM.

For `COc1cc(F)cc([C@@H](CO)NC(=O)c2ncn3cc(-c4cn[nH]c4)ccc23)c1` [Compound T344, (S)-N-(1-(3-fluoro-5-methoxyphenyl)-2-hydroxyethyl)-6-(1H-pyrazol-4-yl)imidazo[1,5-a]pyridine-1-carboxamide], the IC50 in assay [1] and in assay [2] was at most 50 nM throughout.

As for `O=C(NCc1cc(F)cc(OCC2CC2)c1)N1CCc2cc(-c3c[nH]nc3F)c(F)cc21` [Compound T347, N-(3-(cyclopropylmethoxy)5-fluorobenzyl)-6-fluoro-5-(3-fluoro-1H-pyrazol-4-yl)indoline-1-carboxamide], the IC50 in assay [1] and in assay [2] was at most 50 nM in each case.

Take `N#Cc1cc(F)cc(CNC(=O)N2CCc3cc(-c4c[nH]nc4N)c(F)cc32)c1` [Compound T348, 5-(3-amino-1H-pyrazol-4-yl)-N-(3-cyano-5-fluorobenzyl)-6-fluoroindoline-1-carboxamide]: the IC50 in assay [1] and in assay [2] was 500 to 5000 nM in each case.

Consider `O=C(NCc1cc(F)cc(OC(F)(F)F)c1)N1CCc2cc(-c3cn[nH]c3)c(F)cc21` [Compound T349, 6-fluoro-N-(3-fluoro-5-(trifluoromethoxy)benzyl)-5-(1H-pyrazol-4-yl)indoline-1-carboxamide], for which the IC50 in assay [1] and in assay [2] was 500 to 5000 nM each time.

Consider `O=C(COc1cc(F)cc([C@@H](CO)NC(=O)N2CCc3cc(-c4cn[nH]c4)c(F)cc32)c1)N1CC(F)(F)C1` [Compound T350, (S′)-N-(1-(3-(2-(3,3-difluoroazetidin-1-yl)-2-oxoethoxy)-5-fluorophenyl)-2-hydroxyethyl)-6-fluoro-5-(1H-pyrazol-4-yl)indoline-1-carboxamide], for which the IC50 in assay [1] and in assay [2] was at most 50 nM each time.

Consider `COc1cc(F)cc(CNC(=O)N2CCc3cc(-c4c[nH]nc4F)c(F)cc32)c1` [Compound T351, 6-fluoro-5-(3-fluoro-1H-pyrazol-4-yl)-N-(3-fluoro-5-methoxybenzyl)indoline-1-carboxamide], for which the IC50 in assay [1] and in assay [2] was at most 50 nM each time.

`COc1cc(F)cc([C@@H](CO)NC(=O)c2cnc3cc(-c4cn[nH]c4)ccn23)c1` [Compound T352, (S)-N-(1-(3-fluoro-5-methoxyphenyl)-2-hydroxyethyl)-7-(1H-pyrazol-4-yl)imidazo(1,2-a)pyridine-3-carboxamide]: the half-inhibitory concentration (IC50) in assay [1] and in assay [2] was at most 50 nM throughout.

In the case of `COc1cc(F)cc(CNC(=O)N2CCc3cc(-c4cn[nH]c4)c(C#N)cc32)c1` [Compound T353, 6-cyano-N-(3-fluoro-5-methoxybenzyl)-5-(1H-pyrazol-4-yl)indoline-1-carboxamide], the values for the IC50 in assay [1] and in assay [2] were 50 to 500 nM and 500 to 5000 nM, respectively.

Turning to `CC(C)COc1cc(F)cc([C@@H](CO)NC(=O)N2CCc3cc(-c4cn[nH]c4)c(F)cc32)c1` [Compound T354, (S)-6-fluoro-N-(1-(3-fluoro-3-isobutoxyphenyl)-2-hydroxyethyl)-5-(1H-pyrazol-4-yl)indoline-1-carboxamide], the IC50 in assay [1] and in assay [2] was 50 to 500 nM in each case.

`O=C(NC1CCCC1)c1cccc([C@@H](CO)NC(=O)N2CCc3cc(-c4cn[nH]c4)c(F)cc32)c1` [Compound T356-S, (S)-N-(1-(3-(cyclopentylcarbamoyl)phenyl)-2-hydroxyethyl)-6-fluoro-5-(1H-pyrazol-4-yl)indoline-1-carboxamide]: the IC50 in assay [1] and in assay [2] was at most 50 nM each time.

Consider `CC(C)NC(=O)COc1cc(F)cc([C@@H](CO)NC(=O)N2CCc3cc(-c4cn[nH]c4)c(F)cc32)c1` [Compound T358, (5)-6-fluoro-N-(1-(3-fluoro-5-(2-(isopropylamino)-2-oxoethoxy)phenyl)-2-hydroxyethyl)-5-(1H-pyrazol-4-yl)indoline-1-carboxamide], for which the IC50 in assay [1] and in assay [2] was at most 50 nM throughout.

For `COc1cc(F)cc([C@@H](CO)NC(=O)N2CCc3cc(-c4c[nH]nc4Cl)c(F)cc32)c1` [Compound T359, (S)-5-(3-chloro-1H-pyrazol-4-yl)-6-fluoro-N-(1-(3-fluoro-5-methoxyphenyl)-2-hydroxyethyl)indoline-1-carboxamide], the IC50 in assay [1] was at most 50 nM; in assay [2], 50 to 500 nM.

Consider `CN(C)Cc1cc(F)cc(CNC(=O)c2ncn3cc(-c4cn[nH]c4)ccc23)c1` [Compound T360, N-(3-((dimethylamino)methyl)-5-fluorobenzyl)-6-(1H-pyrazol-4-yl)imidazo[1,5-a]pyridine-1-carboxamide], for which the IC50 in assay [1] was 50 to 500 nM; in assay [2] it was 500 to 5000 nM.

As for `Nc1n[nH]cc1-c1cc2c(cc1F)N(C(=O)NCc1cc(F)cc(F)c1)CC2` [Compound T364, 5-(3-amino-1H-pyrazol-4-yl)-6-fluoro-N-(3,5-difluorobenzyl)indoline-1-carboxamide], the results for the IC50 in assay [1] and in assay [2] were 50 to 500 nM and 500 to 5000 nM, respectively.

Regarding `COc1cc(F)cc([C@@H](CO)NC(=O)N2CCc3cc(-c4c[nH]nc4N)c(F)cc32)c1` [Compound T365, (S′)-5-(3-amino-1H-pyrazol-4-yl)-6-fluoro-N-(1-(3-fluoro-5-methoxyphenyl)-2-hydroxyethyl)indoline-1-carboxamide], the IC50 in assay [1] was at most 50 nM; in assay [2] it was 50 to 500 nM.

With `CN(C)C[C@H](NC(=O)N1CCc2cc(-c3c[nH]nc3F)c(F)cc21)c1cc(F)cc(F)c1` [Compound T366-R, (R)-N-(1-(3,5-difluorophenyl)-2-(dimethylamino)ethyl)-6-fluoro-5-(3-fluoro-1H-pyrazol-4-yl)indoline-1-carboxamide], the IC50 lay within 50 to 500 nM in assay [1] and 500 to 5000 nM in assay [2].

In the case of `CN(C)C[C@@H](NC(=O)N1CCc2cc(-c3c[nH]nc3F)c(F)cc21)c1cc(F)cc(F)c1` [Compound T366-S, (S)-N-(1-(3,5-difluorophenyl)-2-(dimethylamino)ethyl)-6-fluoro-5-(3-fluoro-1H-pyrazol-4-yl)indoline-1-carboxamide], the IC50 in assay [1] and in assay [2] was at most 50 nM in each case.
